According to patent US8975400B2, “2,3-dihydroimidazo[1, 2-c] pyrimidin-5(1 H)-one compounds use as LP-PLA2 inhibitors” (Glaxo Group Limited, priority 2011, dated 2015):
Counter-ions that a name gives are not always drawn.

Key:
[1] = biological target: T1, Lp-PLA2 in human plasma (Homo sapiens, UniProt Q13093); experiment: Lp-PLA2 human plasma assay (Thio-PAF assay); assay type: biochemical; details: pooled human plasma, 2-thio-PAF substrate; read-out: pIC50 in the thio-PAF assay (converted)
T1 construct: This assay may detect the activity of Lp-PLA2 in human plasma; from tissue; host or cells: pooled human plasma
T1 sequence (Q13093 22-441): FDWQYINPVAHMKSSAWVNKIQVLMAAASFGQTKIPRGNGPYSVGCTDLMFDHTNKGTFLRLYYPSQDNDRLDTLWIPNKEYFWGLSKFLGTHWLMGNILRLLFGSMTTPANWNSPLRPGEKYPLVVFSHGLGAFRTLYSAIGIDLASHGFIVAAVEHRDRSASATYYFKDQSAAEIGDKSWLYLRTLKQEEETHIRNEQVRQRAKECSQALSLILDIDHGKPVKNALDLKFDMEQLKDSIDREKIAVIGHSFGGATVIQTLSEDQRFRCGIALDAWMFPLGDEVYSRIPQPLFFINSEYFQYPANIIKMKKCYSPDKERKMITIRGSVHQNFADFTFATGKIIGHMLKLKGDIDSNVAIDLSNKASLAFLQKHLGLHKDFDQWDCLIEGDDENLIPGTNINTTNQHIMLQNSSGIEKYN
From the text: (3) Lipoprotein-Associated Phospholipase A2 (Lp-PLA2) Human Plasma Assay (Also Referred to as “Thio-PAF Assay”)
The human plasma assay utilizes a thioester analog of PAF (phosphatidylcholine), where hydrolysis yields to the formation of a phospholipid containing a free thiol group. The amount of thiol is quantitated continuously by reacting with CPM (7-diethylamino-3-(4′-maleimidylphenyl)-4-methylcoumarin), a maleimide which increases in fluoresence after Michael addition of thiols. This assay may detect the activity of Lp-PLA2 in human plasma, as determined by specific inhibition by Lp-PLA2 inhibitors.
The thio-PAF assay was run as a quenched 15 μL assay. Compounds source plate was prepared by making 1:3 (by volume) serial dilution of the compounds into pure DMSO on 384-well microplate. 0.01 μL of compounds on compound source plate were transferred to 384 well Greiner 784076 (black) low-volume plates by ECHO liquid dispenser. 8 μL pooled human plasma, which was previously aliquoted and frozen, was added. Plates were centrifuged for 10 sec at 500 rpm. After 30 minutes preincubation, 2 μL of substrate solution comprising 2.5 mM 2-thio-PAF [from ethanol stock], 32 μM CPM [from a DMSO stock] and 3.2 mM NEM (N-ethylmaleimide) [made fresh daily in DMSO] in assay buffer of 50 mM HEPES, pH 7.4, 150 mM NaCl, 1 mM CHAPS was added to 384 well Greiner 784076 (black) low-volume plates by BRAVO liquid handling station. After 2 mins, reaction was quenched with 5 μL of 5% aqueous trifluoroacetic acid (TFA). Plates were covered to protect from light and incubated for 40 min at room temperature. Plates were read at ex: 380/em: 485 using-Envision microplate reader. pIC50 data, curve and QC analysis was conducted by using XLFit module in Excel.

[2] = biological target: T2, recombinant human Lp-PLA2 (Homo sapiens, UniProt Q13093); experiment: Recombinant human Lp-PLA2 assay (rhLp-PLA2, PED6 assay); assay type: biochemical; details: recombinant human Lp-PLA2, PED6 substrate; upper limit for pIC50 in this assay is 9.3
T2 sequence (Q13093 22-441): T1 sequence (Q13093 22-441)
From the text: (1) Recombinant Human Lp-PLA2 Assay (rhLp-PLA2) (Also Referred to as “PED6” Assay)
N-((6-(2,4-dinitrophenyl)amino)-hexanoyl)-2-(4,4-difluoro-5,7-dimethyl-4-bora-3a,4a-diaza-s-indacene-3-pentanoyl)-1-hexadecanoyl-sn-glycero-3-phosphoethanolamine, triethylammonium salt (PED6) is a commercially available fluorescently-labeled phospholipid, which is commercially available from Invitrogene and Molecular Probes. There is a quenching […] and a Bodipy fluorescein (FL) group in the sn2 position. Upon cleavage with Lp-PLA2, the Bodipy FL group is liberated and then may result in an increase in fluorescence. Inhibitors of Lp-PLA2 therefore prevent this cleavage and no fluorescent increase is observed.
The PED6 assay was run as an unquenched 10 μL assay. The source plate containing the compounds to be tested was prepared by making 1:3 (by volume) serial dilution of the compounds within DMSO on 384-well microplate. Then, 0.01 μL of the compounds on compound source plate were transferred into 384 well Greiner 784076 (black) plates using ECHO liquid dispenser. 5 µL of recombinant human Lp-PLA2 enzyme (4 nM (or 110 pM) rhLp-PLA2 in assay buffer of 50 mM HEPES, pH 7.4, 150 mM NaCl, 1 mM CHAPS) was added to each well of the plate. Plates were centrifuged for 10 sec at 500 rpm. After 30 minutes preincubation, 5 µL of substrate (4 μM (or 5 μM) PED6 [from 5 mM DMSO stock] in assay buffer of 50 mM HEPES, pH 7.4, 150 mM NaCl, 1 mM CHAPS) was added to 384 well Greiner 784076 (black) plates. Plates were centrifuged for 10 sec at 500 rpm. The plate was covered to protect it from light and incubated for 20 min at room temperature. The plates were read for fluorescence intensity at ex: 480/em: 540 using ViewLux microplate imager for Envision spectrofluroimeters pIC50 data, curve and QC analysis was conducted by using XL fit module in Excel.
The compounds described below were tested generally according to the PED6 assay described above.

| IC50 [1] [nM] | IC50 [2] [nM] | SMILES |
| --- | --- | --- |
| ≤ 1000 |  | CN1CCn2c1cc(OCc1ccc(Oc3cncc(F)c3)c(C#N)c1)nc2=O [Example 137, 2-((5-fluoropyridin-3-yl)oxy)-5-(((1-methyl-5-oxo-1,2,3,5-tetrahydroimidazo[1,2-c]pyrimidin-7-yl)oxy)methyl)benzonitrile] |
|  | ≤ 10 | CN1CCn2c1cc(OCc1ccc(Oc3cccc(C#N)c3)c(F)c1)nc2=O [Example E63, 3-(2-fluoro-4-(((1-methyl-5-oxo-1,2,3,5-tetrahydroimidazo[1,2-c]pyrimidin-7-yl)oxy)methyl)phenoxy)benzonitrile, trifluoroacetic acid salt] |
| ≤ 1000 |  | CN1CCn2c1cc(OCc1ccc(Oc3cncc(C#N)c3)c(F)c1)nc2=O [Example 141, 5-(2-fluoro-4-(((1-methyl-5-oxo-1,2,3,5-tetrahydroimidazo[1,2-c]pyrimidin-7-yl)oxy)methyl)phenoxy)nicotinonitrile] |
|  | ≤ 1 | O=c1nc(OCc2ccc(Oc3cc(F)cc(C(F)(F)F)c3)c(F)c2)cc2n1CCN2 [Example 151, 7-((3-fluoro-4-(3-fluoro-5-(trifluoromethyl)phenoxy)benzyl)oxy)-2,3-dihydroim-idazo[1,2-c]pyrimidin-5(1H)-one] |
| ≤ 1000 |  | O=c1nc(OCc2ccc(F)c(F)c2)cc2n1CCN2 [Example E68, 7-((3,4-difluorobenzyl)oxy)-2,3-dihydroimidazo[1,2-c]pyrimidin-5(1H)-one] |
| ≤ 1000 |  | CN1CCn2c1cc(OCc1cc(F)c(F)c(F)c1)nc2=O [Example E17, 1-methyl-7-((3,4,5-trifluorobenzyl)oxy)-2,3-dihydroimidazo[1,2-c]pyrimidin-5(1H)-one] |
|  | ≤ 10 | O=c1nc(OCc2cc(F)c(Oc3ccc(F)cc3)c(F)c2)cc2n1CCN2 [Example E74, 7-((3,5-difluoro-4-(4-fluorophenoxy)benzyl)oxy)-2,3-dihydroimidazo[1,2-c]pyrimidin-5(1H)-one] |
| ≤ 1000 |  | CN1CCn2c1cc(OCc1cccc(C#N)c1)nc2=O [Example E33, 3-(((1-methyl-5-oxo-1,2,3,5-tetrahydroimidazo[1,2-c]pyrimidin-7-yl)oxy)meth-yl)benzonitrile] |
|  | ≤ 10 | O=c1nc(OCc2ccc(Oc3cccc(C(F)(F)F)c3)c(Cl)c2)cc2n1CCN2 [Example E61, 7-((3-chloro-4-(3-(trifluoromethyl)phenoxy)benzyl)oxy)-2,3-dihydroimidazo[1,2-c]pyrimidin-5(1H)-one] |
|  | ≤ 10 | N#Cc1cc(COc2cc3n(c(=O)n2)CCN3)ccc1Oc1cccc(C(F)(F)F)c1 [Example 112, 5-(((5-oxo-1,2,3,5-tetrahydroimidazo[1,2-c]pyrimidin-7-yl)oxy)methyl)-2-(3-(trifluoromethyl)phenoxy)benzonitrile] |
| ≤ 1000 |  | CN1CCn2c1cc(OCc1ccc(Oc3ccc(C#N)nc3)c(C#N)c1)nc2=O [Example 108, 5-(2-cyano-4-(((1-methyl-5-oxo-1,2,3,5-tetrahydroimidazo[1,2-c]pyrimidin-7-yl)oxy)methyl)phenoxy)picolinonitrile] |
| ≤ 1000 |  | CN1CCn2c1cc(OCc1ccc(Oc3cnc(C(F)(F)F)nc3)c(C#N)c1)nc2=O [Example E31, 5-(((l-methyl-5-oxo-1,2,3,5-tetrahydroimidazo[1,2-c]pyrimidin-7-yl)oxy)methyl)-2-((2-(trifluoromethyl)pyrimidin-5-yl)oxy)benzonitrile] |
| ≤ 1000 |  | CN1CCn2c1cc(OCc1ccc(Oc3ccc(F)c(Cl)c3)c(C#N)c1)nc2=O [Example E39, 2-(3-chloro-4-fluorophenoxy)-5-(((1-methyl-5-oxo-1,2,3,5-tetrahydroimidazo[1,2-c]pyrimidin-7-yl)oxy)methyl)benzonitrile, trifluoroacetic acid salt] |
|  | ≤ 10 | N#Cc1cc(COc2cc3n(c(=O)n2)CCN3)ccc1Oc1cnc(F)c(F)c1 [Example 117, 2-((5,6-difluoropyridin-3-yl)oxy)-5-(((5-oxo-1,2,3,5-tetrahydroimidazo[1,2-c]pyrimidin-7-yl)oxy)methyl)benzonitrile] |
| ≤ 1000 |  | N#Cc1cccc(COc2cc3n(c(=O)n2)CCN3)c1 [Example E60, 3-(((5-oxo-1,2,3,5-tetrahydroimidazo[1,2-c]pyrimidin-7-yl)oxy)methyl)benzonitrile] |
|  | ≤ 10 | O=c1nc(OCc2ccc(Oc3ccc(Cl)c(Cl)c3)c(F)c2)cc2n1CCN2 [Example 98, 7-((4-(3,4-dichlorophenoxy)-3-fluorobenzyl)oxy)-2,3-dihydroimidazo[1,2-c]pyrimi-din-5(1H)-one] |
| ≤ 1000 |  | CC(C)N1CCn2c1cc(OCc1ccc(F)c(F)c1)nc2=O [Example E47, 7-((3,4-difluorobenzyl)oxy)-1-isopropyl-2,3-dihydroimidazo[1,2-c]pyrimidin-5(1H)-one, trifluoroacetic acid salt] |
| ≤ 1000 |  | CN1CCn2c1cc(OCc1ccc(F)c(F)c1)nc2=O [Example E7, 7-((3,4-difluorobenzyl)oxy)-1-methyl-2,3-dihydroimidazo[1,2-c]pyrimidin-5(1H)-one] |
| ≤ 1000 |  | CN1CCn2c1cc(OCc1ccc(Oc3cncc(C#N)c3)c(C#N)c1)nc2=O [Example 138, 5-(2-cyano-4-(((l-methyl-5-oxo-1,2,3,5-tetrahydroimidazo[1,2-c]pyrimidin-7-yl)oxy)methyl)phenoxy)nicotinonitrile] |
| ≤ 1000 |  | CN1CCn2c1cc(OCc1ccc(F)c(C#N)c1)nc2=O [Example 146, 2-fluoro-5-(((l-methyl-5-oxo-1,2,3,5-tetrahydroimidazo[1,2-c]pyrimidin-7-yl)oxy)methyl)benzonitrile] |
|  | ≤ 10 | CN1CCn2c1cc(OCc1ccc(F)c(Oc3cccc(Cl)c3)c1)nc2=O [Example E16, 7-((3-(3-chlorophenoxy)-4-fluorobenzyl)oxy)-1-methyl-2,3-dihydroimidazo[1,2-c]pyrimidin-5(1H)-one] |
|  | ≤ 10 | CN1CCn2c1cc(OCc1ccc(Oc3cc(F)cc(F)c3)c(F)c1)nc2=O [Example E43, 7-((4-(3,5-difluorophenoxy)-3-fluorobenzyl)oxy)-1-methyl-2,3-dihydroimidazo[1,2-c]pyrimidin-5(1H)-one, trifluoroacetic acid salt] |
|  | ≤ 10 | CN1CCn2c1cc(OCc1ccc(Oc3ccc(F)cc3)c(C#N)c1)nc2=O [Example E22, 2-(4-fluorophenoxy)-5-(((1-methyl-5-oxo-1,2,3,5-tetrahydroimidazo[1,2-c]pyrimidin-7-yl)oxy)methyl)benzonitrile] |
| ≤ 1000 |  | Cc1ccc(Oc2ccc(COc3cc4n(c(=O)n3)CCN4C)cc2C#N)cn1 [Example E56, 5-(((1-methyl-5-oxo-1,2,3,5-tetrahydroimidazo[1,2-c]pyrimidin-7-yl)oxy)methyl)-2-((6-methylpyridin-3-yl)oxy)benzonitrile, trifluoroacetic acid salt] |
